Assay results: US6413959B1, “Method of treating depression with arylglycinamide derivatives” (Boehringer Ingelheim KG, priority 1995, dated 2002)

Assays:
[1] = molecular target: T1, NK1-receptor (substance P-receptor) (Homo sapiens, UniProt P25103); test: NK1-receptor affinity, displacement of 125I-labelled substance P on IM-9 cells; assay type: binding; settings: human lymphoblastoma cells (IM-9) with cloned NK1-receptors
T1 construct: expressed in transfected cells; host or cells: IM-9 human lymphoblastoma cells
T1 sequence (P25103 whole entry): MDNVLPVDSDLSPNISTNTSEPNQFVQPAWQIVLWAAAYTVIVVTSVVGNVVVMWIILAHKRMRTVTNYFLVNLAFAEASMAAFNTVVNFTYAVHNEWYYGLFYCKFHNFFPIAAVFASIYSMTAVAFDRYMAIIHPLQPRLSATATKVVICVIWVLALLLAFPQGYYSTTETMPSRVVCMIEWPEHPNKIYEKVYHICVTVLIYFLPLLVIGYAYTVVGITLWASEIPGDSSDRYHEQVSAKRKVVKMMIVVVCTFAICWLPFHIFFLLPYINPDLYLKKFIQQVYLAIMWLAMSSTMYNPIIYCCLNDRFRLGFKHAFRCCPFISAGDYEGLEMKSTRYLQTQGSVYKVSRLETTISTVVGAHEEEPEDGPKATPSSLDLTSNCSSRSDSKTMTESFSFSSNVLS

NK1 = molecular target: T2, NK1 (Cavia porcellus, UniProt P30547); test: Inhibition of the lowering of blood pressure caused by NK1 in anaesthetised guinea pigs; assay type: in vivo; settings: guinea pig, iv, antagonist given by intraduodenal route, NK1-agonist [βAla4, Sar9, Met(O2)11] SP(4-11) 0.2 μmol/kg i.v., read-out: ID50 (dose which inhibits the lowering of blood pressure caused by the NK1-agonist by 50%)
T2 construct: Guinea pigs weighing 300-500 grams were anaesthetised with pentobarbital; from tissue; host or cells: whole anaesthetised guinea pig (in vivo)
T2 sequence (P30547 whole entry): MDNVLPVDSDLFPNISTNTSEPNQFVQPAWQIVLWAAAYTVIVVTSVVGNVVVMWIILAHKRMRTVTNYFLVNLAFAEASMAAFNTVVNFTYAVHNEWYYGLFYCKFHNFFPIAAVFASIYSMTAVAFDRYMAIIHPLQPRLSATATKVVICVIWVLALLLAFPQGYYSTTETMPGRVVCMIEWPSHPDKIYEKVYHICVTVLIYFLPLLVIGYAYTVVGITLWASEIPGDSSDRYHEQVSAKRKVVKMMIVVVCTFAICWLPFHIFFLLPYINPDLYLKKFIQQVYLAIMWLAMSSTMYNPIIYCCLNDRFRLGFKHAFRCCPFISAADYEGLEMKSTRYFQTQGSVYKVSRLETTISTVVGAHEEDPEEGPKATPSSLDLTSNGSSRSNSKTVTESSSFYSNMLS

Ki [1]: 1.3 nM
melting point: 158 to 164 °C
SMILES: CN(CCc1cc(C(F)(F)F)cc(C(F)(F)F)c1)C(=O)C(c1ccccc1)N1CCN(C2CCCCC2)CC1 (stereo not drawn) [Example 5]
ED50 (NK1): 1.4 mg/kg
